# Experiments:
# Format in all cases: cell-based
# [1] = tested on: Pasteurella multocida PM 6267 (P 2225 (L386), reference strain, mouse infection strain); assay: MIC, broth-microdilution (CLSI VET01-A4), strain PM 6267; settings: Pasteurella multocida strain PM 6267, broth-microdilution; unit assumed
# In short: (§1)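 Two-fold serial dilutions of each compound were prepared, bacteria were grown in them, and plates were then inspected visually. No turbidity at the lowest concentration defined the MIC.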
# [2] = tested on: Pasteurella multocida PM 10775 (080130003051, BRD field isolate); assay: MIC, broth-microdilution (CLSI VET01-A4), strain PM 10775; settings: Pasteurella multocida strain PM 10775, broth-microdilution; unit assumed
# In short: as §1
# [3] = tested on: Mannheimia haemolytica MH 12587 (1071, BRD field isolate, macrolide-resistance: erm+, E+); assay: MIC, broth-microdilution (CLSI VET01-A4), strain MH 12587; settings: Mannheimia haemolytica strain MH 12587, broth-microdilution; unit assumed
# In short: as §1
# [4] = tested on: Pasteurella multocida PM 6391 (ATCC 43137, reference strain); assay: MIC, broth-microdilution (CLSI VET01-A4), strain PM 6391; settings: Pasteurella multocida strain PM 6391, broth-microdilution; unit assumed
# In short: as §1
# [5] = tested on: Mannheimia haemolytica MH 13065 (XB0446-6003.9, BRD field isolate); assay: MIC, broth-microdilution (CLSI VET01-A4), strain MH 13065; settings: Mannheimia haemolytica strain MH 13065, broth-microdilution; unit assumed
# In short: as §1
# [6] = tested on: Mannheimia haemolytica MH 6374 (ATCC 33396, reference strain); assay: MIC, broth-microdilution (CLSI VET01-A4), strain MH 6374; settings: Mannheimia haemolytica strain MH 6374, broth-microdilution; unit assumed
# In short: as §1
# [7] = tested on: Mannheimia haemolytica MH 6357 (M7/2, reference strain, cattle infection strain); assay: MIC, broth-microdilution (CLSI VET01-A4), strain MH 6357; settings: Mannheimia haemolytica strain MH 6357, broth-microdilution; unit assumed
# In short: as §1
# [8] = tested on: Mannheimia haemolytica MH 10720 (154, BRD field isolate); assay: MIC, broth-microdilution (CLSI VET01-A4), strain MH 10720; settings: Mannheimia haemolytica strain MH 10720, broth-microdilution; unit assumed
# In short: as §1
# [9] = tested on: Mannheimia haemolytica MH 13093 (XB0472-6014.1, BRD field isolate); assay: MIC, broth-microdilution (CLSI VET01-A4), strain MH 13093; settings: Mannheimia haemolytica strain MH 13093, broth-microdilution; unit assumed
# In short: as §1
# [10] = tested on: Pasteurella multocida PM 12080 (IV102277-0093, BRD field isolate); assay: MIC, broth-microdilution (CLSI VET01-A4), strain PM 12080; settings: Pasteurella multocida strain PM 12080, broth-microdilution; unit assumed
# In short: as §1
SMILES,MIC PM 6267 [1],MIC PM 10775 [2],MIC MH 12587 [3],MIC PM 6391 [4],MIC MH 13065 [5],MIC MH 6374 [6],MIC MH 6357 [7],MIC MH 10720 [8],MIC MH 13093 [9],MIC PM 12080 [10]
COc1ccc(CNCc2ccc(C#Cc3ccc(C(=O)N[C@@H](C(C)=O)C(=O)NO)cc3)cc2)cc1 [Compound 401],6.3 µg/mL,1.6 µg/mL,0.4 µg/mL,0.2 µg/mL,1.6 µg/mL,1.6 µg/mL,1.6 µg/mL,3.1 µg/mL,1.6 µg/mL,0.8 µg/mL
CC(=O)C(NC(=O)c1ccc(C#Cc2ccc(CNCc3ccncc3)cc2)cc1)C(=O)NO (centres unmarked) [Compound 402],50 µg/mL,3.1 µg/mL,1.6 µg/mL,0.8 µg/mL,6.3 µg/mL,12.5 µg/mL,6.3 µg/mL,6.3 µg/mL,6.3 µg/mL,1.6 µg/mL
CC(=O)C(NC(=O)c1ccc(C#Cc2ccc(CN3CCCC3)cc2)cc1)C(=O)NO (centres unmarked) [Compound 403],100 µg/mL,6.3 µg/mL,6.3 µg/mL,0.8 µg/mL,25 µg/mL,12.5 µg/mL,25 µg/mL,12.5 µg/mL,25 µg/mL,3.1 µg/mL
CC(=O)C(NC(=O)c1ccc(C#Cc2ccc(CNC3CCC3)cc2)cc1)C(=O)NO (centres unmarked) [Compound 404],25 µg/mL,3.1 µg/mL,3.1 µg/mL,0.4 µg/mL,25 µg/mL,12.5 µg/mL,12.5 µg/mL,6.3 µg/mL,50 µg/mL,1.6 µg/mL
CC(=O)C(NC(=O)c1ccc(C#Cc2ccc(CNC3CCCC3)cc2)cc1)C(=O)NO (centres unmarked) [Compound 405],100 µg/mL,3.1 µg/mL,12.5 µg/mL,0.8 µg/mL,0.8 µg/mL,50 µg/mL,25 µg/mL,6.3 µg/mL,25 µg/mL,0.8 µg/mL
CCCNCc1ccc(C#Cc2ccc(C(=O)N[C@@H](C(C)=O)C(=O)NO)cc2)cc1 [Compound 406],25 µg/mL,3.1 µg/mL,1.6 µg/mL,0.2 µg/mL,25 µg/mL,25 µg/mL,12.5 µg/mL,6.3 µg/mL,12.5 µg/mL,3.1 µg/mL
CC(=O)C(NC(=O)c1ccc(C#Cc2ccc(CNCc3cccnc3)cc2)cc1)C(=O)NO (centres unmarked) [Compound 407],25 µg/mL,1.6 µg/mL,1.6 µg/mL,0.2 µg/mL,6.3 µg/mL,6.3 µg/mL,3.1 µg/mL,6.3 µg/mL,6.3 µg/mL,0.8 µg/mL
CC(=O)C(NC(=O)c1ccc(C#Cc2ccc(CNCc3ccnc(Cl)c3)cc2)cc1)C(=O)NO (centres unmarked) [Compound 408],6.3 µg/mL,0.8 µg/mL,0.4 µg/mL,≤ 0.1 µg/mL,1.6 µg/mL,1.6 µg/mL,1.6 µg/mL,1.6 µg/mL,1.6 µg/mL,0.4 µg/mL
CC(=O)C(NC(=O)c1ccc(C#Cc2ccc(CNCc3ccco3)cc2)cc1)C(=O)NO (centres unmarked) [Compound 410],6.3 µg/mL,0.8 µg/mL,0.4 µg/mL,≤ 0.1 µg/mL,1.6 µg/mL,1.6 µg/mL,0.8 µg/mL,1.6 µg/mL,1.6 µg/mL,0.4 µg/mL
CC(=O)C(NC(=O)c1ccc(C#Cc2ccc(CNCc3cccs3)cc2)cc1)C(=O)NO (centres unmarked) [Compound 411],3.1 µg/mL,0.4 µg/mL,0.2 µg/mL,≤ 0.1 µg/mL,0.8 µg/mL,0.8 µg/mL,0.4 µg/mL,0.8 µg/mL,0.8 µg/mL,0.2 µg/mL
CC(=O)[C@H](NC(=O)c1ccc(C#Cc2ccc(CNCc3ccc(C)cc3)cc2)cc1)C(=O)NO [Compound 412],6.3 µg/mL,0.4 µg/mL,0.4 µg/mL,≤ 0.1 µg/mL,1.6 µg/mL,1.6 µg/mL,1.6 µg/mL,1.6 µg/mL,1.6 µg/mL,0.2 µg/mL
CC(=O)C(NC(=O)c1ccc(C#Cc2ccc(CNCC3CCCO3)cc2)cc1)C(=O)NO (centres unmarked) [Compound 413],50 µg/mL,0.4 µg/mL,6.3 µg/mL,0.2 µg/mL,6.3 µg/mL,12.5 µg/mL,12.5 µg/mL,3.1 µg/mL,25 µg/mL,0.4 µg/mL
CC(=O)C(NC(=O)c1ccc(C#Cc2ccc(CNCc3nccs3)cc2)cc1)C(=O)NO (centres unmarked) [Compound 414],6.3 µg/mL,0.4 µg/mL,0.4 µg/mL,≤ 0.1 µg/mL,0.8 µg/mL,1.6 µg/mL,0.8 µg/mL,0.8 µg/mL,1.6 µg/mL,≤ 0.1 µg/mL
CON=C(C)C(NC(=O)c1ccc(C#Cc2ccc(CNCc3ccncc3)cc2)cc1)C(=O)NO (centres unmarked) [Compound 415],1.6 µg/mL,≤ 0.1 µg/mL,0.2 µg/mL,≤ 0.1 µg/mL,0.4 µg/mL,0.8 µg/mL,0.4 µg/mL,0.4 µg/mL,0.4 µg/mL,≤ 0.1 µg/mL

# Reference: US11034650B2, “Compounds useful for treating a Mannheimia haemolytica or Histophilus somni infection” (Intervet Inc., priority 2016, dated 2021)
